From patent US20110319411A1, “ISOINDOLINONE AND RELATED ANALOGS AS SIRTUIN MODULATORS” (Sirtis Pharmaceuticals, Inc., priority 2008, published 2011) come the findings set out here.

Molecules are shown by their SMILES.

The test deals with T1, SIRT1 (Homo sapiens, UniProt Q96EB6).
T1 construct: made in house; host or cells: E. coli BL21(DE3)
T1 sequence (Q96EB6 1-747): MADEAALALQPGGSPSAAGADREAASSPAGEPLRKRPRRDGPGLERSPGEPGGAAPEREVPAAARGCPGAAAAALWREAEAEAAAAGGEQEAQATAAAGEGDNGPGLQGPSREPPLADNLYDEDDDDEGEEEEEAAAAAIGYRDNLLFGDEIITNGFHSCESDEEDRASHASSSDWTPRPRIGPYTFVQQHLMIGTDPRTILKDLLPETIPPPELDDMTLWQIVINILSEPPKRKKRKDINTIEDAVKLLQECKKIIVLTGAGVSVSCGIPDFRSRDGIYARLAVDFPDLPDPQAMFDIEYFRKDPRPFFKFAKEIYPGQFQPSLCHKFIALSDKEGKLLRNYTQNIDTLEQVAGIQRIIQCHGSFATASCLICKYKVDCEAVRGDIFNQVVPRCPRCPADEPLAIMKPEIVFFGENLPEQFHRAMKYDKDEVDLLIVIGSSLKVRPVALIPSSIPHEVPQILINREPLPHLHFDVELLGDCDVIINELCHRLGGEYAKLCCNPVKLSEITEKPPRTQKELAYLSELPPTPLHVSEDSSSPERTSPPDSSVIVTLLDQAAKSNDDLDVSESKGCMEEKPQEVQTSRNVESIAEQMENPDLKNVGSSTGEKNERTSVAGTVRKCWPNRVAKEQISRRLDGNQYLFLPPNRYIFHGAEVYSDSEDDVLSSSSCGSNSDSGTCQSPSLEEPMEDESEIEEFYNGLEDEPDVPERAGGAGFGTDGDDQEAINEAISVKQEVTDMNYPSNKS
Nature of the test: mass spectrometry based assay to identify modulators of SIRT1 activity. Particulars: 10 nM SIRT1, 0.5 μM peptide substrate, 120 μM βNAD+, 25 minutes at 25° C.; for Emax: 25 min, read-out: % FOLD ACT. (percent maximum fold activation). Format: biochemical. From the text:
A mass spectrometry based assay was used to identify modulators of SIRT1 activity. The mass spectrometry based assay utilizes a peptide having 20 amino acid residues as follows: Ac-EE-K(biotin)-GQSTSSHSK(Ac)NleSTEG-K(5TMR)-EE-NH2 (SEQ ID NO: 1) wherein K(Ac) is an acetylated lysine residue and Nle is a norleucine. The peptide is labeled with the fluorophore 5TMR (excitation 540 nm/emission 580 nm) at the C-terminus. The sequence of the peptide substrate is based on p53 with several modifications. In addition, the methionine residue naturally present in the sequence was replaced with the norleucine because the methionine may be susceptible to oxidation during synthesis and purification.
The mass spectrometry assay is conducted as follows: 0.5 μM peptide substrate and 120 μM βNAD^+ is incubated with 10 nM SIRT1 for 25 minutes at 25° C. in a reaction buffer (50 mM Tris-acetate pH 8, 137 mM NaCl, 2.7 mM KCl, 1 mM MgCl2, 5 mM DTT, 0.05% BSA). Test compounds may be added to the reaction as described above. The SirT1 gene is cloned into a T7-promoter containing vector and transformed into BL21(DE3). After the 25 minute incubation with SIRT1, 10 μL of 10% formic acid is added to stop the reaction. Reactions are sealed and frozen for later mass spec analysis. Determination of the mass of the substrate peptide allows for precise determination of the degree of acetylation (i.e. starting material) as compared to deacetylated peptide (product).
A control for inhibition of sirtuin activity is conducted by adding 1 μL of 500 mM nicotinamide as a negative control at the start of the reaction (e.g., permits determination of maximum sirtuin inhibition). A control for activation of sirtuin activity is conducted using 10 nM of sirtuin protein, with 1 μL of DMSO in place of compound, to determine the amount of deacetylation of the substrate at a given timepoint within the linear range of the assay. This timepoint is the same as that used for test compounds and, within the linear range, the endpoint represents a change in velocity.
For the above assay, SIRT1 protein was expressed and purified as follows. The SirT1 gene was cloned into a T7-promoter containing vector and transformed into BL21(DE3). The protein was expressed by induction with 1 mM IPTG as an N-terminal His-tag fusion protein at 18° C. overnight and harvested at 30,000×g. Cells were lysed with lysozyme in lysis buffer (50 mM Tris-HCl, 2 mM Tris[2-carboxyethyl]phosphine (TCEP), 10 μM ZnCl2, 200 mM NaCl) and further treated with sonication for 10 min for complete lysis. The protein was purified over a Ni-NTA column (Amersham) and fractions containing pure protein were pooled, concentrated and run over a sizing column (Sephadex S200 26/60 global). The peak containing soluble protein was collected and run on an Ion-exchange column (MonoQ). Gradient elution (200 mM-500 mM NaCl) yielded pure protein. This protein was concentrated and dialyzed against dialysis buffer (20 mM Tris-HCl, 2 mM TCEP) overnight. The protein was aliquoted and frozen at −80° C. until further use.
Sirtuin modulating compounds that activated SIRT1 were identified using the assay described above and are shown below in Table 1. The EC1.5 values represent the concentration of test compounds that result in 150% activation of SIRT1. The EC1.5 values for the activating compounds are represented by A (EC1.5<10 μM), B (EC1-5 10-25 μM), C (EC1.5>25 μM). The percent maximum fold activation is represented by A (Fold activation >200%) or B (Fold Activation <200%).

In the case of `O=C(Nc1cccc2c1C(=O)N(c1cccc(C(F)(F)F)c1)C2)c1cncs1` [Compound 128], the “EC1.5 (concentration of test compound that results in 150% activation of SIRT1)” value is reported as “C (EC1.5>25 μM)” and the Emax is below 200%.

Consider `O=C(Nc1cccc2c1C(=O)N(c1cccc(C(F)(F)F)c1)C2)c1cccc(OCC(O)CO)n1` (stereo not shown) [Compound 129, 6-(2,3-dihydroxypropoxy)-N-(3-oxo-2-(3-(trifluoromethyl)phenyl)isoindolin-4-yl)picolinamide], for which the “EC1.5 (concentration of test compound that results in 150% activation of SIRT1)” value was “C (EC1.5>25 μM)” and the Emax was below 200%.

For the compound `O=C(Nc1cccc2c1C(=O)N(c1cccc(C(F)(F)F)c1)C2)c1cccc(CN2CCOCC2)n1` [Compound 130, 6-(morpholinomethyl)-N-(3-oxo-2-(3-(trifluoromethyl)phenyl)isoindolin-4-yl)picolinamide], the “EC1.5 (concentration of test compound that results in 150% activation of SIRT1)” value was “A (EC1.5<10 μM)” and the Emax is below 200%.

For the compound `O=C(Nc1cccc2c1C(=O)N(c1cccc(OC(F)(F)F)c1)C2)c1cccc(OCC(O)CO)n1` (stereo not shown) [Compound 131], the “EC1.5 (concentration of test compound that results in 150% activation of SIRT1)” value is on record as “C (EC1.5>25 μM)” and the Emax was below 200%.

Take `O=C(Nc1cccc2c1C(=O)N(c1cccc(OC(F)(F)F)c1)C2)c1cccc(CN2CCOCC2)n1` [Compound 132]: the “EC1.5 (concentration of test compound that results in 150% activation of SIRT1)” value is recorded as “A (EC1.5<10 μM)” and the Emax is below 200%.

For `O=C(Nc1cccc2c1C(=O)N(c1cccc(C(F)(F)F)c1)C2)c1nccs1` [Compound 133], the “EC1.5 (concentration of test compound that results in 150% activation of SIRT1)” value is given as “C (EC1.5>25 μM)” and the Emax was below 200%.

`O=C(Nc1cccc2c1C(=O)N(c1cccc(C(F)(F)F)c1)C2)c1cccnn1` [Compound 134]: the “EC1.5 (concentration of test compound that results in 150% activation of SIRT1)” value was “C (EC1.5>25 μM)” and the Emax was below 200%.

For `O=C(Nc1cccc2c1C(=O)N(c1cccc(C(F)(F)F)c1)C2)c1cccc(N2CCOCC2)n1` [Compound 135], the “EC1.5 (concentration of test compound that results in 150% activation of SIRT1)” value was “C (EC1.5>25 μM)” and the Emax is below 200%.

For the compound `O=C(Nc1cccc2c1C(=O)N(c1cccc(C(F)(F)F)c1)C2)c1cccc(N2CCCC2)n1` [Compound 136], the “EC1.5 (concentration of test compound that results in 150% activation of SIRT1)” value is reported as “C (EC1.5>25 μM)” and the Emax was below 200%.

In the case of `O=C(Nc1cccc2c1C(=O)N(c1cccc(C(F)(F)F)c1)C2)c1cncc(N2CCOCC2)n1` [Compound 137], the “EC1.5 (concentration of test compound that results in 150% activation of SIRT1)” value is given as “C (EC1.5>25 μM)” and the Emax is below 200%.

Regarding `O=C(Nc1cccc2c1C(=O)N(c1cccc(C(F)(F)F)c1)C2)c1cccc(C2CCNC2)c1` (stereo not shown) [Compound 138], the “EC1.5 (concentration of test compound that results in 150% activation of SIRT1)” value is “A (EC1.5<10 μM)” and the Emax was above 200%.
